Assays:
HCT-15 = assay: NCI-60 one-dose screen; format: cell-based; conditions: Homo sapiens; HCT-15, Colon Cancer panel; single dose 10^−5 M; read-out: Growth inhibition %
SN12C = assay: NCI-60 one-dose screen; format: cell-based; conditions: Homo sapiens, Renal Cancer panel, single dose 10^−5 M, read-out: Growth inhibition %
OVCAR-3 = assay: NCI-60 one-dose screen; format: cell-based; conditions: Homo sapiens; OVCAR-3, Ovarian Cancer panel; single dose 10^−5 M; read-out: Growth inhibition %
MDA-MB-435 = assay: NCI-60 one-dose screen; format: cell-based; conditions: Homo sapiens; MDA-MB-435, Melanoma panel; single dose 10^−5 M; read-out: Growth inhibition %
COLO 205 = assay: NCI-60 one-dose screen; format: cell-based; conditions: Homo sapiens; COLO 205, Colon Cancer panel; single dose 10^−5 M; read-out: Growth inhibition %
SK-MEL-28 = assay: NCI-60 one-dose screen; format: cell-based; conditions: Homo sapiens; SK-MEL-28, Melanoma panel; single dose 10^−5 M; read-out: Growth inhibition %
SK-OV-3 = assay: NCI-60 one-dose screen; format: cell-based; conditions: Homo sapiens; SK-OV-3, Ovarian Cancer panel; single dose 10^−5 M; read-out: Growth inhibition %
UACC-257 = assay: NCI-60 one-dose screen; format: cell-based; conditions: Homo sapiens; UACC-257, Melanoma panel; single dose 10^−5 M; read-out: Growth inhibition %
SF-295 = assay: NCI-60 one-dose screen; format: cell-based; conditions: Homo sapiens; SF-295, CNS Cancer panel; single dose 10^−5 M; read-out: Growth inhibition %
NCI-H522 = assay: NCI-60 one-dose screen; format: cell-based; conditions: Homo sapiens; NCI-H522, Non-small cell lung panel; single dose 10^−5 M; read-out: Growth inhibition %
SK-MEL-2 = assay: NCI-60 one-dose screen; format: cell-based; conditions: Homo sapiens; SK-MEL-2, Melanoma panel; single dose 10^−5 M; read-out: Growth inhibition %
CAKI-1 = assay: NCI-60 one-dose screen; format: cell-based; conditions: Homo sapiens; CAKI-1, Renal Cancer panel; single dose 10^−5 M; read-out: Growth inhibition %
SK-MEL-5 = assay: NCI-60 one-dose screen; format: cell-based; conditions: Homo sapiens; SK-MEL-5, Melanoma panel; single dose 10^−5 M; read-out: Growth inhibition %
K-562 = assay: NCI-60 one-dose screen; format: cell-based; conditions: Homo sapiens, K562; K-562, Leukemia panel; single dose 10^−5 M; read-out: Growth inhibition %
NCI/ADR-RES = assay: NCI-60 one-dose screen; format: cell-based; conditions: Homo sapiens, Ovarian Cancer panel, single dose 10^−5 M, read-out: Growth inhibition %
HCC-2998 = assay: NCI-60 one-dose screen; format: cell-based; conditions: Homo sapiens; HCC-2998, Colon Cancer panel; single dose 10^−5 M; read-out: Growth inhibition %
SNB-75 = assay: NCI-60 one-dose screen; format: cell-based; conditions: Homo sapiens; SNB-75, CNS Cancer panel; single dose 10^−5 M; read-out: Growth inhibition %
KM12 = assay: NCI-60 one-dose screen; format: cell-based; conditions: Homo sapiens; KM12, Colon Cancer panel; single dose 10^−5 M; read-out: Growth inhibition %
SR = assay: NCI-60 one-dose screen; format: cell-based; conditions: Homo sapiens, Leukemia panel, single dose 10^−5 M, read-out: Growth inhibition %
M14 = assay: NCI-60 one-dose screen; format: cell-based; conditions: Homo sapiens; M14, Melanoma panel; single dose 10^−5 M; read-out: Growth inhibition %
HOP-92 = assay: NCI-60 one-dose screen; format: cell-based; conditions: Homo sapiens; HOP-92, Non-small cell lung panel; single dose 10^−5 M; read-out: Growth inhibition %
T-47D = assay: NCI-60 one-dose screen; format: cell-based; conditions: Homo sapiens, T47D, Breast Cancer panel, single dose 10^−5 M, read-out: Growth inhibition %
ACHN = assay: NCI-60 one-dose screen; format: cell-based; conditions: Homo sapiens, Renal Cancer panel, single dose 10^−5 M, read-out: Growth inhibition %
SW-620 = assay: NCI-60 one-dose screen; format: cell-based; conditions: Homo sapiens; SW-620, Colon Cancer panel; single dose 10^−5 M; read-out: Growth inhibition %
U251 = assay: NCI-60 one-dose screen; format: cell-based; conditions: Homo sapiens, U-251; U251, CNS Cancer panel; single dose 10^−5 M; read-out: Growth inhibition %
SF-268 = assay: NCI-60 one-dose screen; format: cell-based; conditions: Homo sapiens; SF-268, CNS Cancer panel; single dose 10^−5 M; read-out: Growth inhibition %
CCRF-CEM = assay: NCI-60 one-dose screen; format: cell-based; conditions: Homo sapiens, Leukemia panel, single dose 10^−5 M, read-out: Growth inhibition %
IGROV1 = assay: NCI-60 one-dose screen; format: cell-based; conditions: Homo sapiens, IGROV-1; IGROV1, Ovarian Cancer panel; single dose 10^−5 M; read-out: Growth inhibition %
LOX IMVI = assay: NCI-60 one-dose screen; format: cell-based; conditions: Homo sapiens, Melanoma panel, single dose 10^−5 M, read-out: Growth inhibition %
PDE5A = biological target: T1, PDE5A (Homo sapiens, UniProt O76074); assay: Phosphodiesterase 5 HTRF cGMP assay; format: biochemical; conditions: for IC50: means ± S.D. (n = 4), read-out: PDE5 IC50; for inhibition at 10 µM: read-out: PDE5 % Inhibition at 10 μM
T1 construct: purchased BPS Bioscience, San Diego, CA, USA
Description: All the synthesized acridine derivatives were tested for their in vitro ability to inhibit PDE5A at a screening dose of 10 µM.
The enzyme activities of phosphodiesterase 5 (PDE5) were measured using an HTRF cGMP assay kit (Cisbio, Codolet, France). […] Afterward, the HTRF reagent (cGMP-d2 and anti-cGMP-cryptate) was added for 1 h at 25 °C, and PDE activity was assayed on an HTRF reader (Tecan Infinite F200 Pro).

Row | Structure (SMILES) | inhibition at 10 µM (HCT-15) [%] | inhibition at 10 µM (SN12C) [%] | inhibition at 10 µM (OVCAR-3) [%] | inhibition at 10 µM (MDA-MB-435) [%] | inhibition at 10 µM (COLO 205) [%] | inhibition at 10 µM (SK-MEL-28) [%] | inhibition at 10 µM (SK-OV-3) [%] | inhibition at 10 µM (UACC-257) [%] | inhibition at 10 µM (SF-295) [%] | inhibition at 10 µM (NCI-H522) [%] | inhibition at 10 µM (SK-MEL-2) [%] | inhibition at 10 µM (CAKI-1) [%] | inhibition at 10 µM (SK-MEL-5) [%] | inhibition at 10 µM (K-562) [%] | inhibition at 10 µM (NCI/ADR-RES) [%] | inhibition at 10 µM (HCC-2998) [%] | inhibition at 10 µM (SNB-75) [%] | inhibition at 10 µM (KM12) [%] | inhibition at 10 µM (SR) [%] | inhibition at 10 µM (M14) [%] | other results
1 | COc1ccc(CNc2c3ccccc3nc3ccccc23)cc1OC [Compound 18, Acridin-9-yl-(3,4-dimethoxybenzyl)-amine] | 89.8 | 77.5 | 56.3 | 70.6 | 94.7 | 64.8 | 58.9 | 77.9 | 81.9 | 81.8 | 61.4 | 89.5 | 82.5 | 91.2 | 80.7 | 69.9 | 75.2 | 68.4 | 91.4 | 82.3 | inhibition at 10 µM (HOP-92): 110%; inhibition at 10 µM (T-47D): 74.2%; inhibition at 10 µM (ACHN): 95.9%; inhibition at 10 µM (SW-620): 84%; inhibition at 10 µM (U251): 76.8%; inhibition at 10 µM (SF-268): 60.4%; inhibition at 10 µM (CCRF-CEM): 69.5%; inhibition at 10 µM (IGROV1): 89.1%; inhibition at 10 µM (LOX IMVI): 104%; IC50 (PDE5A): 9.77 ± 3.11 µM; inhibition at 10 µM (PDE5A): 51.2 ± 5.26%
2 | Fc1cccc(CNc2c3ccccc3nc3ccccc23)c1F [Compound 20, Acridin-9-yl-(2,3-difluorobenzyl)-amine] | 60.5 | 51 | 13.9 | 12.7 | 59.1 | 3.12 | 24.1 | 7.14 | 46.2 | 46.1 | -6.76 | 54.3 | 17 | 56.6 | 51.5 | 41.6 | 21.2 | 13.1 | 61.8 | 29.4 | inhibition at 10 µM (HOP-92): 97.3%; inhibition at 10 µM (T-47D): 31.7%; inhibition at 10 µM (ACHN): 69.4%; inhibition at 10 µM (SW-620): 58.6%; inhibition at 10 µM (U251): 34.5%; inhibition at 10 µM (SF-268): 16.6%; inhibition at 10 µM (CCRF-CEM): 37.6%; inhibition at 10 µM (IGROV1): 47.3%; inhibition at 10 µM (LOX IMVI): 60.8%; IC50 (PDE5A): 7.25 ± 2.21 µM; inhibition at 10 µM (PDE5A): 57.9 ± 6.04%
3 | Fc1ccc(CNc2c3ccccc3nc3ccccc23)c(F)c1 [Compound 21, Acridin-9-yl-(2,4-difluorobenzyl)-amine] | 71.3 | 62.8 | 29.8 | 33.5 | 73.2 | 9.61 | 40.2 | 31.1 | 59.6 | 57.7 | 0.35 | 64.7 | 30.6 | 77.5 | 63.8 | 58.7 | 18.9 | 40 | 74.8 | 44.7 | inhibition at 10 µM (HOP-92): 103%; inhibition at 10 µM (T-47D): 52.6%; inhibition at 10 µM (ACHN): 76.5%; inhibition at 10 µM (SW-620): 70.2%; inhibition at 10 µM (U251): 55.9%; inhibition at 10 µM (SF-268): 31.4%; inhibition at 10 µM (CCRF-CEM): 46.1%; inhibition at 10 µM (IGROV1): 64.3%; inhibition at 10 µM (LOX IMVI): 78.5%; IC50 (PDE5A): > 10 µM; inhibition at 10 µM (PDE5A): 31.9 ± 8.01%
4 | Fc1ccc(CNc2c3ccccc3nc3ccccc23)cc1F [Compound 22, Acridin-9-yl-(3,4-difluorobenzyl)-amine] | 82 | 70.3 | 31.1 | 50.8 | 83.9 | 17.6 | 44.3 | 34.9 | 70.2 | 63 | 10.6 | 74.7 | 33.8 | 87.7 | 72.4 | 97.8 | 33.8 | 46.7 | 83 | 56.9 | inhibition at 10 µM (HOP-92): 109%; inhibition at 10 µM (T-47D): 52.1%; inhibition at 10 µM (ACHN): 80.7%; inhibition at 10 µM (SW-620): 76.3%; inhibition at 10 µM (U251): 69.7%; inhibition at 10 µM (SF-268): 42.8%; inhibition at 10 µM (CCRF-CEM): 58.5%; inhibition at 10 µM (IGROV1): 77.2%; inhibition at 10 µM (LOX IMVI): 87.5%; IC50 (PDE5A): > 10 µM; inhibition at 10 µM (PDE5A): 36.2 ± 9.78%
5 | c1ccc(CCNc2c3ccccc3nc3ccccc23)cc1 [Compound 23, Acridin-9-yl-phenethyl-amine] | 76.7 | 66.9 | 29 | 44.7 | 78.8 | 32.3 | 37.4 | 44.8 | 65.1 | 60.2 | 13.7 | 69.7 | 35.3 | 75 | 66.5 | 58.6 | 32.4 | 42.6 | 79.1 | 57.3 | inhibition at 10 µM (HOP-92): 102%; inhibition at 10 µM (T-47D): 51.1%; inhibition at 10 µM (ACHN): 78.4%; inhibition at 10 µM (SW-620): 71.7%; inhibition at 10 µM (U251): 58.9%; inhibition at 10 µM (SF-268): 33.5%; inhibition at 10 µM (CCRF-CEM): 46.7%; inhibition at 10 µM (IGROV1): 72%; inhibition at 10 µM (LOX IMVI): 82.4%; IC50 (PDE5A): 6.68 ± 1.1 µM; inhibition at 10 µM (PDE5A): 57.3 ± 3.58%
